“Also recorded” adds a separate entry of the source.
How the values were obtained:
[1] = tested on: primary human CD4 T-lymphocytes; experiment: Cell hyperproliferation in primary T cells (CFSE staining, mitotic index); type: cell-based; details: for anti-proliferative activity (in words) / mitotic index %: SPPs 10 μM, Imatinib 10 μM; for anti-proliferative activity (in words): compared with HU 100 μM, HU+ddI or untreated control; for Anti-proliferative capacity: class symbol, Table 6; for mitotic index %: % of not treated control (100%), day 10
Protocol: We built up an experimental model using primary T cells to study the activity of the compounds on induced hyperproliferation of cells, which is a characteristic of both chronic viral diseases and cancer including HIV and leukemia.
(§1) Unstimulated (quiescent/resting, day 0 to 5) primary human CD4 T-lymphocytes were obtained by magnetic bead separation from healthy, normal donors. After five days in culture, cells were activated with PHA (5 μg/ml) to induce hyperproliferation then, at day 7, IL-2 (20 U/ml) was added (stimulated, day 6 to 10). All available compounds were tested at a concentration of 10 μM. […] At day 10, cells were harvested. Proliferation of T cells, cultured as described above, was studied by staining the cells with carboxyfluorescein diacetate-succinimidyl ester (CFSE) at day 0 (immediately after infection). For data analysis, the mitotic index (M) was used, calculating the sum of mitotic events at each proliferation cycle. To extract a relative number, M was normalized to the total number of cells acquired using the equation M=Σ[(Xn(T)−Xn(T)/2^n)], that gives the number of mitotic events from the experimentally obtained values of the proportion of T cells under each division peak n (Xn) and the total T cells (T). To study the effect of the compounds on apoptosis T cells were cultured as described above and at day 10 cells were stained with Annexin V and 7-AAD, in order to determine the percentage of total apoptotic events.

[2] = tested on: primary human CD4 T-lymphocytes; experiment: Apoptosis in primary CD4 T cells (Annexin V and 7-AAD staining); type: cell-based; details: SPPs 10 μM; for apoptotic effect (in words): compared with HU 100 μM, HU+ddI or untreated control; for apoptosis %: total apoptotic events compared to untreated control, day 10, Imatinib 10 μM, HU 100 μM, ddI 2 μM
Protocol: as §1
We determined the capacity of the compounds to affect the percentages of apoptotic events after 10 days of treatment in primary CD4 T cells.

HIV-1 NL 4.3 [3] = experiment: HIV-1 replication in quiescent CD4 T cells (p24 Ag ELISA); type: cell-based; details: for anti-HIV activity in quiescent cells (in words) / HIV quiescent cells (percentage p24 compared to the untreated control): SPPs 10 μM; for anti-HIV activity in quiescent cells (in words): compared with HU 100 μM, HU+ddI or untreated control; for Antiviral activity in quiescent cells: class symbol, Table 6; for HIV quiescent cells (percentage p24 compared to the untreated control): quiescent CD4 T cells, day 10, HU 100 μM, HU 100 μM+ddI 2 μM
Protocol: Unstimulated (quiescent/resting, day 0 to 5) human CD4 T-lymphocytes, obtained by magnetic bead separation from healthy, normal donors, were infected with HIV-1 NL 4.3. After five days in culture, cells were stimulated with PHA (5 μg/ml) to induce proliferation, and then, at day 7, IL-2 (20 U/ml) was added (stimulated, day 6 to 10). All available compounds were tested at a concentration of 10 μM. HU 100 μM and HU 100 μM+ddI 2 μM were also employed as comparators and the negative control was left untreated. At day 10, cells and supernatants were harvested and HIV-1 p24 Ag was measured by ELISA. HIV replication was expressed as percentage p24 compared to the untreated control.

HIV-1 NL 4.3 [4] = experiment: HIV-1 replication in activated T cells (PBMC, p24 Ag ELISA); type: cell-based; details: for anti-HIV activity in activated T cells (in words): SPPs 10 μM, compared with HU 100 μM, HU+ddI or untreated control; for Antiviral activity in activated cells: class symbol, Table 6; for HIV activated cells (% p24 compared to not treated control): activated T cells, 7 days, SPPs and Imatinib 10 μM, HU 100 μM, ddI 2 μM
Protocol: The experimental setup described below allows us to detect direct antiviral activity of a compound.
Human PBMC, obtained from healthy, normal donors, were stimulated for two days with PHA 5 μg/ml. Then cells were infected with HIV-1 NL 4.3, IL-2 was added (20 U/ml), cells were plated (10^5 cells per well in 200 μl) and drug treatment started. […] The control was left untreated. After 7 days of incubation at 37° C. supernatants were harvested and HIV-1 p24 Ag was measured by ELISA.

[5] = tested on: Human peripheral blood mononuclear cells (PBMC); details: human, 7 days, 10 μM

| SMILES | more anti-proliferative than HU+ddI ([1]; 10 μM, spider graph FIG. 3) | anti-proliferative activity (in words) [1] | decrease/inhibition of cell proliferation compared to not treated control ([1]; SPPs and Imatinib 10 μM, HU 100 μM) [%] | Anti-proliferative capacity [1] | apoptotic effect (in words) [2] | inhibition at 10 µM (HIV-1 NL 4.3 [3]; Human immunodeficiency virus 1, CD4+ T, read-out: reduction of HIV-1 p24 production / inhibition of HIV replication compared to untreated control) [%] | anti-HIV activity in quiescent cells (in words) (HIV-1 NL 4.3 [3]) | Antiviral activity in quiescent cells (HIV-1 NL 4.3 [3]) | inhibition at 10 µM (HIV-1 NL 4.3 [4]; Human immunodeficiency virus 1, T-cell, read-out: inhibition of p24 production / HIV replication compared to untreated control) [%] | anti-HIV activity in activated T cells (in words) (HIV-1 NL 4.3 [4]) | Antiviral activity in activated cells (HIV-1 NL 4.3 [4]) | % viability [5] [%] | mitotic index % ([1]; HU 100 μM) [%] | apoptosis % [2] [%] | HIV quiescent cells (percentage p24 compared to the untreated control) (HIV-1 NL 4.3 [3]) [%] | HIV activated cells (% p24 compared to not treated control) (HIV-1 NL 4.3 [4]) [%] |
| --- | --- | --- | --- | --- | --- | --- | --- | --- | --- | --- | --- | --- | --- | --- | --- | --- |
| Fc1ccc(CNc2ncnc3c2cnn3CC(Cl)c2ccc(Cl)cc2)cc1 (stereo not shown) [VS1-029, 1-[2-chloro-2-(4-chlorophenyl)ethyl]-N-(4-fluorobenzyl)-1H-pyrazolo[3,4-d]pyrimidin-4-amine] | about 20% | good anti-proliferative capacity (superior to 100 μM HU) | 95 | +++ (excellent (+++, greater than 70% activity)) | no more apoptotic than HU; also recorded: slight increase | 94 | good anti-HIV activity | +++ (excellent (+++, greater than 70% activity)) | 88 | good anti-HIV activity | +++ (excellent (+++, greater than 70% activity)) | 96.8 ± 4.5 |  |  |  |  |
| CSc1nc(NCc2ccccc2Cl)c2cnn(CC(Cl)c3ccccc3)c2n1 (stereo not shown) [VS1-036] |  | greater or equal to that of 100 μM HU |  | +++ (excellent (+++, greater than 70% activity)) | did not induce apoptosis |  | effective against HIV | +++ (excellent (+++, greater than 70% activity)) |  | effective against HIV | +++ (excellent (+++, greater than 70% activity)) |  | 12.0 ± 6.4 | 139.3 ± 41.6 | 14.5 ± 4.0 | 22.1 ± 5.7 |
| CCCNc1nc(SCCN2CCOCC2)nc2c1cnn2CC(Cl)c1ccccc1 (stereo not shown) [VS1-025] |  | poor activity |  |  |  |  |  |  |  | poor activity |  |  | 61.6 ± 12.7 | 139.3 ± 20.8 | 23.6 ± 14.5 | 74.2 ± 31.7 |
| CSc1nc(N2CCCCCC2)c2cnn(CC(Cl)c3ccccc3)c2n1 (stereo not shown) [VS1-034] |  | comparable or even greater than HU |  |  |  |  |  |  |  |  |  |  | 25.9 ± 12.9 | 115.1 ± 34.5 | 22.2 ± 7.0 | 65.0 ± 12.0 |
| CCCCNc1ncnc2c1cnn2C=Cc1ccccc1 [VS1-021] |  | poor activity |  |  |  |  |  |  |  | poor activity |  |  | 86.2 ± 13.7 | 108.0 ± 21.7 | 115.4 ± 40.4 | 97.2 ± 30.3 |
| C(=Cn1ncc2c(NCc3ccccc3)ncnc21)c1ccccc1 [VS1-013] |  |  |  |  |  |  |  |  |  |  |  |  | 85.6 ± 3.6 | 121.3 ± 14.1 | 63.3 ± 26.0 | 116.4 ± 21.1 |
| C(=Cn1ncc2c(N3CCOCC3)ncnc21)c1ccccc1 [VS1-009] |  | very little activity |  |  |  |  |  |  |  | very little activity |  |  | 88.4 ± 19.8 | 114.2 ± 21.3 | 71.8 ± 42.9 | 44.8 ± 14.9 |
| CCSc1nc(NCc2ccccc2)c2cnn(CC(Cl)c3ccccc3)c2n1 (stereo not shown) [VS1-020] |  | as anti-proliferative or even better than HU |  |  | proapoptotic |  | effective against HIV |  |  | effective against HIV |  |  | 21.9 ± 13.0 | 174.7 ± 25.9 | 9.2 ± 3.7 | 26.3 ± 6.1 |
| CSc1nc(Nc2cccc(Cl)c2)c2cnn(CC(Cl)c3ccc(F)cc3)c2n1 (stereo not shown) [VS1-022] |  | as anti-proliferative or even better than HU |  |  | proapoptotic |  | effective against HIV |  |  | effective against HIV |  |  | 10.4 ± 11.4 | 178.0 ± 25.7 | 5.4 ± 3.1 | 37.1 ± 19.8 |
| C(=Cn1ncc2c(NCCc3ccccc3)ncnc21)c1ccccc1 [VS1-014] |  |  |  |  |  |  |  |  |  |  |  |  | 76.9 ± 2.7 | 135.2 ± 19.3 | 74.3 ± 22.8 | 92.4 ± 24.3 |
| C(=Cn1ncc2c(NC3CCCCC3)ncnc21)c1ccccc1 [VS1-012] |  |  |  |  |  |  |  |  |  | better anti-HIV activity than HU |  |  | 68.8 ± 10.7 | 46.3 ± 9.1 | 10.9 ± 5.0 | 18.6 ± 2.9 |
| C(=Cn1ncc2c(N3CCCCCC3)ncnc21)c1ccccc1 [VS1-001] |  | less effective than HU |  |  | did not induce apoptosis |  | very effective inhibitor of HIV replication |  |  | very effective inhibitor of HIV replication |  |  | 52.0 ± 2.0 | 80.3 ± 19.2 | 19.6 ± 20.3 | 12.5 ± 2.3 |
| CSc1nc(NCCc2cccc(Cl)c2)c2cnn(CC(Cl)c3ccccc3)c2n1 (stereo not shown) [VS1-028] |  | good anti-proliferative capacity (superior to 100 μM HU) |  | +++ (excellent (+++, greater than 70% activity)) | no more apoptotic than HU |  | good anti-HIV activity | +++ (excellent (+++, greater than 70% activity)) |  | good anti-HIV activity | +++ (excellent (+++, greater than 70% activity)) |  | 15.2 ± 15.7 | 108.6 ± 30.8 | 4.4 ± 2.9 | 25.7 ± 19.8 |

From patent US20120022048A1, “Anti-proliferative substituted pyrazolo[3,4-d]pyrimidines derivatives (SPP) to inhibit immune activation, virus replication and tumor growth” (priority 2010, published 2012)
